Reference: patent US6906205B2, “Spiro and dispiro 1,2,4-trioxolane antimalarials” (Medicines for Malaria Venture MMV, priority 2002, dated 2005)
In brackets after ≈: the same amount, converted by molar mass.

Legend:
[1] = system: P. falciparum K1 strain (Thailand resistant to chloroquine); test: semiautomated microdilution assay, [3H]-hypoxanthine incorporation, K1 strain; type: cell-based, Plasmodium falciparum; details: K1 strain, 72 h incubation
Method in brief: (§1)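 Asynchronous stock cultures → intraerythrocytic forms; semiautomated microdilution; IC50 by logit regression.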

[2] = system: P. falciparum NF54 strain (sensitive to standard antimalarials); test: semiautomated microdilution assay, [3H]-hypoxanthine incorporation, NF54 strain; type: cell-based, Plasmodium falciparum; details: NF54 strain, 72 h incubation
Method in brief: as §1

[3] = system: ANKA strain of P. berghei; test: single dose STI in vivo screen in infected mice; set-up: species or system Plasmodium berghei; details: for Activity (%) po / Activity (%) sc / Activity (%) SSVpo / Activity (%) 3 mg/kg SSV po: percent reduction in parasitemia day 3 post-infection; for Activity (%) po / Survival (days) po: single 10 mg/kg po in 3% ethanol and 7% Tween 80; for Activity (%) po / Activity (%) sc / Activity (%) SSVpo: mice; for Activity (%) sc / Survival (days) sc: single 10 mg/kg sc in 3% ethanol and 7% Tween 80; for Activity (%) SSVpo: single po dose in standard suspending vehicle (SSV); for Survival (days) po / Survival (days) sc / Survival (days) SSVpo: untreated control 5.6 ± 0.3; for Survival (days) SSVpo: single po dose in SSV; for Survival (days) 10 mg/kg SSV po: single 10 mg/kg po in SSV
Method in brief: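 Groups of 3-5 Moro SPF or NMRI mice infected with the ANKA strain of P. berghei received a single dose of trioxolane on day one post-infection. The compound was given in 3% ethanol and 7% Tween 80 or in SSV (0.5% w/v CMC, 0.5% v/v benzyl alcohol, 0.4% v/v Tween 80, 0.9% w/v sodium chloride in water). Antimalarial activity was scored as percent reduction in parasitemia on day three and as survival time versus untreated controls. Survival to day 30 counted as cure.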

[4] = system: Schistosoma mansoni 21-day-old schistosomules; test: effect on 21-day-old schistosomules in mice; type: in vivo; details: single 200 mg/kg per os, female mice
Protocol: All groups were killed 4 weeks after treatment and the liver and intestine were removed and separated. The liver and intestine were compressed and alive male and female worms could be seen and counted. The effect of the compounds was evaluated by mean total and female worm burden.

[5] = system: Schistosoma mansoni adult schistosomes (49-day-old); test: effect on adult schistosomes (49-day-old) in mice; type: in vivo; details: for % reduction of adult worms growth at day 49 after per os application of 400 mg/kg, TWR (%) / adult worms at day 49, per os 400 mg/kg, DEAD WORM (%): single 400 mg/kg per os
Protocol: Mice were infected with 100 Schistosoma mansoni cercariae […]. Each group was treated per os with OZ compounds at single doses of 200, 400, and 600 mg/kg. […] All groups were killed 4 weeks after treatment and the liver and intestine were removed and separated. The liver and intestine were compressed and alive male and female worms could be seen and counted.

SMILES | IC50 (ng/ml) K1 [1] [ng/mL] | IC50 (ng/ml) NF54 [2] [ng/mL] | Activity (%) po [3] | Activity (%) sc [3] | Activity (%) SSVpo [3] [%] | Survival (days) po [3] | Survival (days) sc [3] | Survival (days) SSVpo [3] [days] | % reduction of schistosomule growth at day 21 after per os application of 200 mg/kg, FWR (%) [4] [%] | % reduction of schistosomule growth at day 21 after per os application of 200 mg/kg, TWR (%) [4] [%] | % reduction of adult worms growth at day 49 after per os application of 400 mg/kg, TWR (%) [5] | adult worms at day 49, per os 400 mg/kg, DEAD WORM (%) [5] | Activity (%) 3 mg/kg SSV po ([3]; single 3 mg/kg po in SSV) [%] | Survival (days) 10 mg/kg SSV po [3] [days] | other results
CCOC(=O)N1CCC2(CC1)OOC1(O2)C2CC3CC(C2)CC1C3 (stereo not shown) [OZ23] | 0.29 (≈ 0.859 nM) | 0.57 (≈ 1.69 nM) | 99.5% | 99.9% | 99.34 | 7.7 days | 8.9 days | 7.0 | 84 | 90 | 0% | 4% |  |  | 
O=C(c1ccccc1)N1CCC2(CC1)OOC1(O2)C2CC3CC(C2)CC1C3 (stereo not shown) [OZ24] | 0.35 (≈ 0.947 nM) | 0.58 (≈ 1.57 nM) | 93% | 99.9% | 66 | 7.0 days | 8.7 days | 6.8 | 61 | 65 | 21% | 0% |  |  | 
CCCC1CCC2(CC1)OOC1(O2)C2CC3CC(C2)CC1C3 (stereo not shown) [OZ25] | 1.1 (≈ 3.59 nM) | 2.1 (≈ 6.85 nM) | 99.9% | 99.97% | 96 | 8.4 days | 16.5 days | 7.2 | 84 | 86 | 46% | 34% |  |  | 
O=[N+]([O-])c1ccc(NN=C2CCC3(CC2)OOC2(O3)C3CC4CC(C3)CC2C4)c([N+](=O)[O-])c1 (stereo not shown) [OZ29] | 9.7 (≈ 21.2 nM) | 13 (≈ 28.4 nM) | 0/NA/0% | 0/NA/0% |  | 5.0/NA/5.0 days | 5.0/NA/5.0 days |  | 20 | 28 | 0/0% | 0/0% |  |  | 
CC1(C)COC2(CCC3(CC2)OOC2(CC(C)(C)CC(C)(C)C2)O3)OC1 [OZ36] | 24 (≈ 65.1 nM) | 62 (≈ 168 nM) | 0/NA/0% | 0/NA/0% |  | 5.7/NA/5.7 days | 5.7/NA/5.7 days |  | 12 | 16 | 0/0% | 0/0% |  |  | 
O=C(O)C1CCC2(CC1)OOC1(O2)C2CC3CC(C2)CC1C3 (stereo not shown) [OZ71] | 4.5 (≈ 14.6 nM) | 3.7 (≈ 12 nM) |  |  | 98 |  |  | 6.7 | 85 | 91 | 0% | 16% |  |  | Activity (%) po ([3]; 10 mg/kg): 98%; Activity (%) sc ([3]; 10 mg/kg): 97%; Survival (days) po ([3]; 10 mg/kg): 7.3 days; Survival (days) sc ([3]; 10 mg/kg): 8.3 days
C1CC2(CCN1)OOC1(O2)C2CC3CC(C2)CC1C3.Cl (stereo not shown) [OZ80] | 0.15 | 0.34 | 59% | 84% |  | 6.3 days | 7.7 days |  | 75 | 79 |  |  |  |  | % reduction of adult worms growth at day 49 after per os application of 200 mg/kg, TWR (%) ([5]; single 200 mg/kg per os): 0%; adult worms at day 49, per os 200 mg/kg, DEAD WORM (%) ([5]; single 200 mg/kg per os): 3%
CC(C)(N)C(=O)NC[C@H]1CC[C@]2(CC1)OOC1(O2)C2CC3CC(C2)CC1C3 (stereo partly shown) [OZ281] | 0.50 (≈ 1.32 nM) | 0.30 (≈ 0.793 nM) |  |  |  |  |  |  | 90 | 91 | 12% | 15% | 96 | 8.7 | Survival (days) 3 mg/kg SSV po ([3]; single 3 mg/kg po in SSV): 10.2 days
O=C1CN(C[C@H]2CC[C@]3(CC2)OOC2(O3)C3CC4CC(C3)CC2C4)CCN1 (stereo partly shown) [OZ285] | 1.3 (≈ 3.45 nM) | 1.8 (≈ 4.78 nM) |  |  |  |  |  |  | 85 | 86 | 17% | 22% | 72 | 8.7 | 
Oc1ccc([C@H]2CC[C@]3(CC2)OOC2(O3)C3CC4CC(C3)CC2C4)cc1 (stereo partly shown) [OZ288] | 1.7 (≈ 4.77 nM) | 2.7 (≈ 7.57 nM) |  |  |  |  |  |  | 96 | 95 | 52% | 45% | 82 | 11.0 | 
